Reference: paper PMC6599048, “Polyhistidine facilitates direct membrane translocation of cell-penetrating peptides into cells” (Scientific Reports, 2019)
Primed or numbered codes have the meaning given here. Ends that are not written are not given here. FITC′ = fluorescein isothiocyanate label

Legend:
A549 cells [1] = assay: Time course of cellular internalization of FITC-CPPs, flow cytometry; assay type: cell-based, human; conditions: 80 μM, 37 °C
Description: (§1) A549 cells were washed with phosphate buffered saline (PBS) and changed to serum-free RPMI 1640 medium for protein transduction experiments. The presence of 10% serum in the medium as the solvent caused a decrease in the uptake of CPPs or their complexes/conjugates. For cellular internalization, cells were seeded at a density of about 1 × 10^5 per 35-mm petri dish and then treated with serum-free medium (as a control), 80 μM of FITC isomer I (Sigma-Aldrich, St. Louis, MO, USA), FITC-nonCPP, FITC-L6, FITC-HL6, or FITC-HR9 at 37 °C for either 1 h or various time durations. The fluorescent tracker Hoechst 33342 was used to stain the nuclei of cells in blue, according to the manufacturer’s instructions (Thermo Fisher).
Cells were seeded at a density of about 2 × 10^5 per well in a 24-well plate. Following the protein transduction, cells were washed with PBS and harvested by adding 250 μl/well of 2.9 mM ethylenediaminetetraacetic acid (EDTA, pH 6.14)[22]. […] Digital measurements were analyzed using Cell Lab Quanta SC MPL software version 1.0 (Beckman Coulter).

human A549 cells = assay: Cellular internalization of FITC-CPPs, fluorescent microscopy; assay type: cell-based; conditions: 80 μM, serum-free RPMI 1640, 37 °C, 1 h, Hoechst 33342 counterstain
Description: as §1
Bright-field and fluorescent images were captured using an AE31 inverted Epi-fluorescence microscope (Motic, Hong Kong, China) equipped with an IS1000 eyepiece (Tucsen, Fujian, China)[17]. Excitation filter modules of green and blue fluorescent protein (GFP, BFP) channels were set at 480/30 and 350/50 nm, respectively. Emission filter modules of GFP and BFP channels were set at 535/40 and 460/50 nm, respectively.

HeLa cells = assay: MTT cytotoxicity assay, HeLa; conditions: 6 μM HL6, 0.3 μM QDs or complexes at ratio 20, 37 °C 30 min, then 24 h in complete medium, twelve independent experiments
Description: One hundred % DMSO and serum-free medium were used to treat cells for 30 min as positive and negative controls, respectively. HeLa cells were pretreated with 4 °C for 30 min or heparinases I, II, and III for 6 h. Cells were then treated with HL6/QD complexes (prepared at a ratio of 20 at 37 °C for 1 h) in the absence or presence of various endocytic inhibitors at 37 °C for 30 min. After treatment, cells were washed with PBS and then incubated in complete culture medium at 37 °C for 24 h. Eighty μl of serum-free medium and 20 μl of 3-(4,5-dimethylthiazol-2-yl)-2,5-diphenyltetrazolium bromide (MTT, Sigma-Aldrich; 5 mg/ml in PBS) solution were added to each well. After incubation at 37 °C for 30 min, […] formazan crystals converted only by metabolically living cells were dissolved in 300 μl of DMSO. The 24-well plates were then read using a SpectraMax M2 microplate reader with SoftMax Pro 6.3 microplate analysis software (Molecular Devices, Sunnyvale, CA, USA) at 540 nm wavelength.

A549 cells [2] = assay: MTT cytotoxicity assay, A549; conditions: 6 μM HL6, 0.3 μM QDs or complexes at ratio 20, 37 °C 30 min, then 24 h in complete medium, twelve independent experiments

Row | Substance | time by which green fluorescence was present (A549 cells [1]; serum-free medium) | green fluorescence in cells (cellular internalization) (human A549 cells) | further results
1 | CHHHHHRRRRRRRRRHHHHHC [FITC-HR9, reference compound] | ≤ 5 min | – | fraction of cells showing uptake, comparison between FITC-CPPs (A549 cells [1]; all time points): higher with FITC-HR9-treated cells than FITC-HL6 and FITC-L6 at all time points
2 | fluorescein isothiocyanate [FITC, reference compound] | – | did not display green fluorescence | –
3 | FITC-HL6: N-terminal fluorescein isothiocyanate (FITC) labeled HL6 ({FITC′}-CHHHHHRRWQWRHHHHHC; cysteine pairing not given here) | ≤ 5 min | green fluorescence | uptake relative to the FITC-L6 group (A549 cells [1]; 60 min, serum-free medium, seven independent experiments in triplicates): 46.7 times
4 | CHHHHHRRWQWRHHHHHC [HL6] | – | – | cytotoxicity (cell viability, MTT) (HeLa cells): No cytotoxicity was detected; cytotoxicity (cell viability, MTT) (A549 cells [2]): No cytotoxicity was detected
